Data reported in US20010003751A1, “Pharmaceutical composition for treating transient ischemic attack” (priority 1995, published 2001).

Tested on: transient ischemic attack (TIA) associated with the internal carotid arterial system
Assay: phase III clinical study of TIA (efficacy in suppressing TIA recurrence, overall safety, utility ratings)
Format: in vivo, human (TIA patients)
Conditions: TIA patients; for Efficacy (%): Effective / Efficacy (%): Indeterminable / Efficacy (%): Ineffective / Efficacy (%): Slightly Effective / Efficacy (%): Worsened: ITT
Protocol: Subjects and total number: The subjects of this study were patients who developed one or more TIA attacks associated with the internal carotid arterial system (NIH Diagnostic Criteria, 1990) during the 3-month period before initial administration (171 for efficacy and utility, 175 for safety). Tablets each containing 50 mg or 100 mg of the subject compound obtained in Example 1 were orally administered after breakfast once daily for 18 months. The study was conducted in double blind fashion. As regards conversion to cerebral infarction, temporal changes in TIA onset frequency, TIA symptoms and duration, etc., efficacy was rated at 6 months, 1 year and 18 months of administration, using a 5-grade rating system: The attack frequency at time of rating (during therapeutic period) 1 year and 18 months after initial administration served as an efficacy rating index. For rating at 6 months of administration and rating at less than 1 year due to discontinuation (adverse reactions etc.), rating was in regard to duration of administration period, with reference to the following rating criteria. [table] Overall safety was rated on the basis of adverse reactions, complications, and presence or absence of abnormal changes in clinical laboratory parameters and their degrees, using a 5-grade rating system: On the basis of efficacy and overall safety ratings for suppression of TIA recurrence, utility was rated using a 5-grade rating system: With regard to the above rating items, data were analyzed using ITT (intent-to-treat analysis), with the utility rating in overall assessment at final administration (18 months after administration) as the major item.

[1] = 50 mg/day oral once daily for 18 months, 86 patients
[2] = 50 mg/day oral once daily for 18 months, 85 patients
[3] = 100 mg/day oral once daily for 18 months, 89 patients
[4] = 100 mg/day oral once daily for 18 months, 86 patients

## O=C(O)CCCC/C=C(\c1ccccc1)c1cccnc1 [Test compound, (E)-7-(3-pyridyl)-7-phenyl-6-heptenic acid]
[1]
  Overall Safety (%): Considerably Problematic: 1.2%
  Overall Safety (%): Indeterminable: 4.7%
  Overall Safety (%): No Problem: 86.0%
  Overall Safety (%): Slightly Problematic: 8.1%
  Overall Safety (%): Very Problematic: 0%
[2]
  Efficacy (%): Effective: 64.7%
  Efficacy (%): Indeterminable: 10.6%
  Efficacy (%): Ineffective: 16.5%
  Efficacy (%): Slightly Effective: 2.3%
  Efficacy (%): Worsened: 5.9%
[3]
  Overall Safety (%): Considerably Problematic: 1.1%
  Overall Safety (%): Indeterminable: 3.4%
  Overall Safety (%): No Problem: 79.8%
  Overall Safety (%): Slightly Problematic: 13.5%
  Overall Safety (%): Very Problematic: 2.2%
[4]
  Efficacy (%): Effective: 66.3%
  Efficacy (%): Indeterminable: 11.6%
  Efficacy (%): Ineffective: 8.1%
  Efficacy (%): Slightly Effective: 7.0%
  Efficacy (%): Worsened: 7.0%
